One may read the IC50 as the midpoint of a concentration-inhibition curve. A lower IC50 goes with greater potency.

Results on one compound are retold here after patent publication US20230086702A1, “SUBSTITUTED 2-AMINO-PYRAZOLYL-[1,2,4]TRIAZOLO[1,5A]PYRIDINE DERIVATIVES AND USE THEREOF” (The Johns Hopkins University, priority 2019, published 2023).

SMILES strings stand for the structures.

One series relates to retina. Put plainly: Retinal structure and function after intravitreal injection (optical coherence tomography, electroretinographs). The format is in vivo, mice. Conditions: 7 days following intravitreal injection of 10 mM, vs vehicle (DMSO) (FIG. 10, 11A, 11B). Here is the method: Optical coherence tomography images of mice 7 days following intravitreal injections of either vehicle (DMSO) or 10 mM I-81 were obtained (FIG. 10). Retinal electroretinographs were also acquired (FIGS. 11A and 11B).

In the next series the target is T1, LZK (Homo sapiens, UniProt O43283).
T1 construct: 10 nM LZK, catalytic domain, Carna Biosiences in assay buffer; purchased Carna Biosciences ('Carna Biosiences' [sic])
T1 sequence (O43283 168-409 limits assumed): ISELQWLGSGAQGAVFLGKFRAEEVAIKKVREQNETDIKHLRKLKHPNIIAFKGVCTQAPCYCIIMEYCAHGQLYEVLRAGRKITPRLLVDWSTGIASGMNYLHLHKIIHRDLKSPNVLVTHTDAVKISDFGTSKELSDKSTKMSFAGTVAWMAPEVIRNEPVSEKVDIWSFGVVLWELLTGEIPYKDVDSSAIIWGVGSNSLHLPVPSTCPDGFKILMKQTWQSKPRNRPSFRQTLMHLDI
Put plainly: LZK biochemical assay (TR-FRET, MKK7 phosphorylation). Conditions: LZK catalytic domain, MKK7 substrate, 15 μM ATP.

In the next series the target is T2, DLK (Homo sapiens, UniProt Q12852).
T2 construct: 10 nM DLK, catalytic domain, Carna Biosiences; purchased Carna Biosciences ('Carna Biosiences' [sic])
T2 sequence (Q12852 125-366 limits assumed): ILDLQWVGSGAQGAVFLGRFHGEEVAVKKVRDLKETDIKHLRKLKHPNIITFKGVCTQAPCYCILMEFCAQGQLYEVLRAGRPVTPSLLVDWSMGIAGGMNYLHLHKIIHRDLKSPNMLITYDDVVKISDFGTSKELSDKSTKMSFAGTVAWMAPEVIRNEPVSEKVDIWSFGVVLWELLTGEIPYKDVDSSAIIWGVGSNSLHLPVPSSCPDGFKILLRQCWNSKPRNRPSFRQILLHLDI
Put plainly: DLK biochemical assay (TR-FRET, MKK7 phosphorylation). Conditions: DLK catalytic domain, MKK7 substrate, 60 μM ATP. The gist of the method:
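Human DLK activity measured as phosphorylation of His-tagged MKK7 at T275/S277, detected by TR-FRET between Eu-anti-phospho-MKK7 donor (excitation 340 nm) and XL665-anti-His acceptor (665 nm). Signal taken as the XL665/Eu ratio. Detection buffer: 25 mM Tris/HCl pH 7.5, 100 mM EDTA, 100 mM NaCl, 200 mM KF, 0.01% Tween 20.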
(In general: TR-FRET usually uses a lanthanide donor and a delayed reading to cut background.)

For `CC[C@H](C)NC(=O)c1cc(-c2cnn([C@H](c3ccc(C(F)(F)F)nc3)C3CCN(C(=O)OC(C)(C)C)CC3)c2)cn2nc(N)nc12` [Example I-81, tert-Butyl 4-{(4-{2-amino-8-[(2S)-butan-2-ylcarbamoyl][1,2,4]triazolo[1,5-a]pyridin-6-yl}-1H-pyrazol-1-yl)[6-(trifluoromethyl)pyridin-3-yl]methyl}piperidine-1-carboxylate], the “structural or functional toxicity to the retina” value in the series with retina is on record as “did not induce structural or functional toxicity to the retina”. The IC50 at LZK is 8.5 nM; against DLK, 6.6 nM.
